The values that follow come from patent US20140165223A1, “TNF SUPERFAMILY TRIMERIZATION INHIBITORS” (B.S.R.C. "Alexander Fleming", priority 2011, published 2014).

For data set [1], the target named is TNF (Homo sapiens, UniProt P01375). Conditions: cited from earlier work.
Data set [2] addresses T1, human RANKL (Homo sapiens, UniProt O14788).
T1 construct: purchased Peprotech
T1 sequence (O14788 143-317 limits assumed): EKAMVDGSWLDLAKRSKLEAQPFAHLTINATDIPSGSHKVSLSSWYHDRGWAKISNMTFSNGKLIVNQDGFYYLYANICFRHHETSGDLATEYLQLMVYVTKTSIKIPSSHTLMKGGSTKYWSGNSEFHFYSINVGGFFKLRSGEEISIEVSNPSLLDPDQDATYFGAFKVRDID
Briefly: RANKL-mediated osteoclastogenesis assay with human RANKL. The format is cell-based. The source says:
However, SPD304 contains a potentially toxic 3-substituted indole moiety that produces reactive intermediates that possibly cause toxicities by covalently binding to nucleophilic residues of protein and/or DNA. […] These small molecules have been also tested as regards their effect on cell toxicity (FIG. 14C).
BM cells were collected after flushing out of femurs and tibiae, subjected to gradient purification using FICOLL-PAQUE™ (GE Healthcare), plated in 96-well plates at a density of 6×10^4 cells per well and cultured in αMEM medium (GIBCO) containing 10% fetal bovine serum supplemented with 50 ng/ml human RANKL (Peprotech) and 25 ng/ml M-CSF (R&D Systems) for 5 days. […] Osteoclasts were stained for TRAP activity (Sigma).

Data set [3] concerns the target T2, soluble mouse RANKL (Mus musculus, UniProt O35235).
T2 construct: a cDNA encoding the core ectodomain of murine RANKL residues 158-316, with or without the G278R substitution; GST (N, cleaved yes); made in house; host or cells: Escherichia coli BL21
T2 sequence (O35235 158-316): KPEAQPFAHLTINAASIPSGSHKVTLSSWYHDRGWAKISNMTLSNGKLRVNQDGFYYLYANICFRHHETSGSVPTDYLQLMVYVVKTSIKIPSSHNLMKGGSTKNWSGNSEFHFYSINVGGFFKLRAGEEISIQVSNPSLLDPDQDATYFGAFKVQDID
Briefly: Soluble mouse RANKL preincubated with SPD304: native gel and DSS cross-linking. It counts as biochemical. The procedure: FIG. 13. Effect of SDP304 on RANKL structure. (Panel A) RANKL dimer with SPD304 located on optimum binding position. G278 is shown with space-filled atoms and SPD304 with doted surface. Cyan and green ribbons represent the two RANKL monomers. Diagram created using PYMOL v1.3. (Panel B) Recombinant WT soluble mouse RANKL (60 ng) was preincubated for 1 hour at 37° C. either with SPD304 at various concentrations from 6-200 μM or without SPD304 (−), resolved on native gel and detected by Western blotting using a polyclonal antibody against RANKL. (Panel C) Recombinant soluble mouse RANKL was preincubated with SPD304 at increasing concentrations from 6-100 μM, was cross-linked with DSS, run on 12% SDS-PAGE and detected by Western blot using an anti-RANKL polyclonal antibody. A representative figure of three independent experiments is shown for Western blots.
Experimental evidence on the TNF analogue and in silico binding studies on mouse RANKL confirm that the optimal binding position of SPD304, causing trimer inhibition, is located very close (<4 Å) to the G278 mutation position in the structure (FIG. 13, Panel A). To experimentally confirm the interference of the SPD304 with the RANKL structure, soluble mouse RANKL was preincubated with increasing concentrations of SPD304 (6-200 μM) and analyzed in native gels showing the natural conformation of RANKL protein (FIG. 13, Panel B). […]

In data set [4] the target is T3, GST-RANKL (Mus musculus, UniProt O35235).
T3 construct: a cDNA encoding the core ectodomain of murine RANKL residues 158-316, with or without the G278R substitution; made in house; host or cells: Escherichia coli BL21
T3 sequence (O35235 158-316): T2 sequence (O35235 158-316)
Briefly: Ex vivo RANKL-induced osteoclast formation (BM cells, M-CSF + GST-RANKL, TRAP staining). The format is cell-based. Particulars: BM cells, 25 ng/ml M-CSF, 80 ng/ml GST-RANKL. The procedure: Instead, WT GST-RANKL (ratio 1:0) induced formation of TRAP+ giant osteoclasts (FIGS. 5A-5C). […] Incubation of WT GST-RANKL with GST at similar concentrations (12.5-100 ng/ml), didn't affect the formation of osteoclasts.
A novel small molecule inhibitor of TNF trimerization, named SPD304, has been recently reported^[35] to interact with glycine 122 (G122) that corresponds to G278 in RANKL.
BM cells were collected after flushing out of femurs and tibiae, subjected to gradient purification using FICOLL-PAQUE™ (GE Healthcare), plated in 24-well plates at a density of 5×10^5 cells per well and cultured in αMEM medium (GIBCO) containing 10% fetal bovine serum supplemented with 40 ng/ml RANKL (R&D Systems) and 25 ng/ml M-CSF (R&D Systems) for 5 days. Similarly, splenocytes were collected, plated in 24-well plates at a density of 10^6 cells per well and cultured in the presence of recombinant RANKL and M-CSF for 6 days. GST-RANKL^G278R was pre-incubated with WT GST-RANKL at room temperature for 20 min, prior to the stimulation of the BM cell cultures, in order to enable exchange of the RANKL variants and heterotrimer formation. Small molecule SPD304 (Sigma-Aldrich) was pre-incubated with 80 ng/ml GST-RANKL at various concentrations from 0.25 to 2 μM in αMEM medium for 1 hour at room temperature and then added to culture. Osteoclasts were stained for TRAP activity.

Data set [5] is described as follows: MTT survival assay in osteoclast precursors. The format is cell-based. Conditions: M-CSF, 1-20 μM, 2 days, read-out: IC50 in MTT survival assay (cell toxicity). The procedure:
(§1) However, SPD304 contains a potentially toxic 3-substituted indole moiety that produces reactive intermediates that possibly cause toxicities by covalently binding to nucleophilic residues of protein and/or DNA. […] Therefore, we investigated the potential of testing SPD304 derivatives designed to be less toxic with higher specificity for human RANKL. […] These small molecules have been also tested as regards their effect on cell toxicity (FIG. 14C).
(§2) Bone marrow (BM) cells were plated in 96-well plates at a density of 10^5 cells per well after gradient purification using FICOLL-PAQUE™ (GE Healthcare). BM cells were cultured in αMEM medium (GIBCO) containing 10% fetal bovine serum supplemented with 25 ng/ml M-CSF (R&D Systems) in the presence of the tested compounds at concentrations from 1-20 μM for 2 days (0.1% DMSO). Serum free a-MEM medium containing 0.5 mg/ml MTT [3-(4,5-Dimethylthiazol-2-yl)-2,5-diphenyltetrazolium bromide] was added for 2 hours in a 37° C. CO2 incubator. After removal of the MTT solution, DMSO was added to extract the dye from the cells and cell viability was accessed at 550 nm.
Background: Tetrazolium dyes change colour on reduction, which living cells bring about.

Data set [6] relates to osteoclast precursors. The data set is described as follows: MTT survival assay in osteoclast precursors. It counts as cell-based. The procedure:
as §1, §2

Data set [7] has as its target T4, BAFF (Homo sapiens, UniProt Q9Y275).
T4 construct: a cDNA encoding the core ectodomain of human BAFF residues 134-285 (17.5 kD), with or without the G249R substitution; GST (N, cleaved yes); made in house; host or cells: E. coli BL21
Briefly: BAFF cross-linking and Western (trimer formation). The format is biochemical. Particulars: DSS cross-linking. The source says:
(§3) Glycine at codon 278 of mouse RANKL is highly conserved among various members of the TNF superfamily. In order to investigate whether this glycine to arginine substitution is also critical for trimerization in other TNF superfamily members, we reproduced this mutation in human BAFF (BAFF^G249R), a cytokine that activates B lymphocytes. Thus, we produced recombinant GST-BAFF in E coli and subsequently the soluble BAFF was released from GST by proteolytic cleavage. […] To examine whether soluble BAFF^G249R binds to BAFF receptor (BAFFR), serial dilutions of human BAFFR-Fc were incubated with immobilized soluble BAFF or BAFF^G249R (FIG. 21B). […] Thus, substitution of this conserved glycine abrogates trimerization not only in RANKL but also in other TNF superfamily members such as TNF, BAFF and possibly in many more.
The chemical cross-linking reagent disuccinimidyl suberate (DSS, Sigma) was used to examine the trimeric property of BAFF as previously described (Douni et al., 2012). Various amounts of BAFF proteins in PBS buffer (pH 7.5) were mixed with 1 mM DSS (the molar ratio of DSS is 10:1). The cross-linking reactions were carried out for 1 hour at room temperature and terminated with 50 mM Tris (pH 7.5) for 30 minutes. Proteins from reaction mixtures were separated on 12% SDS-PAGE and proceeded in Western blot using a polyclonal anti-BAFF antibody (PeproTech).

In data set [8] the test system is BAFFR-Fc. The data set is described as follows: BAFF/BAFF receptor ELISA. The format is binding. Particulars: serial dilutions of human BAFFR-Fc.
Excerpt: as §3
Nunc plates were coated with 3 μg/ml recombinant soluble human BAFF or BAFF^G249R and incubated with increasing amount of recombinant human BAFFR-Fc (R&D Systems). BAFFR binding was detected with a horseradish peroxidase (HRP) conjugated goat anti-human IgG (Fc) (SouthernBiotech, Birmingham, USA) using o-phenylenediamine (OPD) substrate (Thermo Scientific Pierce) that was measured at 490 nm.
For orientation: In an ELISA, binding on a coated surface is turned into a signal by an enzyme label.

In data set [9] the target is T5, binding of human RANKL to its receptor RANK (Homo sapiens, UniProt O14788).
T5 construct: a cDNA encoding the core ectodomain of human RANKL residues 143-317 (20 kD), was cloned into pGEX-6P-1; GST (N, cleaved yes); host or cells: Escherichia coli BL21 (RANKL)
T5 sequence (O14788 143-317): T1 sequence (O14788 143-317 limits assumed)
Briefly: RANKL/RANK ELISA. Particulars: peptides 3-100 μM, dose dependent. As for the experimental part: Nunc plates were coated with 100 μl of 250 ng/ml recombinant soluble human RANK-Fc (R&D Systems) overnight. Recombinant soluble human RANKL at 200 ng/ml was pre-incubated with increasing amounts of peptides (3-100 μM) for 1 hour at 37° C. and was added in the RANK-coated wells. RANKL binding was detected with a polyclonal goat anti-RANKL antibody (R&D Systems), followed by a horseradish peroxidase (HRP) conjugated horse anti-goat IgG (Vector) using o-phenylenediamine (OPD) substrate (Thermo Scientific Pierce) that was measured at 490 nm.

T4 sequence (Q9Y275 134-285): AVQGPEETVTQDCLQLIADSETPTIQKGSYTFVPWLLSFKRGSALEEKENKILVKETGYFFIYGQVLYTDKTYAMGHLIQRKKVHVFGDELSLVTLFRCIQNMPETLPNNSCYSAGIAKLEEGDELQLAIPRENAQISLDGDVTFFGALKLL
Chain of TNF (P01375 77-233 limits assumed): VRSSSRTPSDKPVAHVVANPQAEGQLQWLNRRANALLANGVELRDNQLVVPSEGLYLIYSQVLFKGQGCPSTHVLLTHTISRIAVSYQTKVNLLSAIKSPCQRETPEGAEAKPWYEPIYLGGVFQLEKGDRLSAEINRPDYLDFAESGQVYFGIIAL

By IC50 is commonly meant the concentration at which inhibition is half-maximal. Consider `Cc1cc2occ(CN(C)CCN(C)Cc3cn(-c4cccc(C(F)(F)F)c4)c4ccccc34)c(=O)c2cc1C` [SPD304, 6,7-Dimethyl-3-[[methyl[2-[methyl[[1-[3-(trifluoromethyl)phenyl]-1H-indol-3-yl]methyl]amino]ethyl]amino]methyl]-(4H-1-Benzopyran-4-one)], for which the “inhibition of TNF trimerization and function” value in [1] is “effectively inhibits TNF trimerization and function”. Further, the “inhibition of human RANKL function in osteoclastogenesis” value in [2] (2 μM) is given as “effective in inhibiting human RANKL function”. In addition, the “RANKL forms after chemical cross-linking” value in data set [3] (SPD304 6-100 μM, DSS) was “dramatic increase of RANKL dimers and monomers”. Moreover, the “RANKL conformation in native gel” value in [3] (SPD304 6-200 μM, 1 hour at 37° C.) was “a second band of lower molecular weight was also evident”. The “formation of TRAP+ multinucleated osteoclasts” value in data set [4] (SPD304 at 1 μM) was “attenuated both the number and the size of TRAP+ multinucleated cells”. Moreover, the “formation of multinuclear TRAP+ osteoclasts” value in [4] (SPD304 at 2 μM) was “completely inhibited”. In addition, the IC50 at 2 days in data set [5] was determined as 3.4 µM. Further, the “toxic concentrations in MTT survival assay” value in data set [6] is recorded as “above 5 μM”.

With “BAFF^G249R: soluble human BAFF residues 134-285 with the G249R substitution”, the BAFF trimer assembly result in data set [7] is given as “failure of spontaneous trimer assembly”. The “binding to BAFF receptor” value in data set [8] is on record as “cannot bind to its receptor”.

On to “HFYSINVGRFFK (RANKL fragment) [peptide 2]”, for which the “inhibition of RANKL function in RANKL-dependent osteoclastogenesis assays” value in data set [2] (peptides at 50 μM (FIG. 16A)) is listed as “inhibited the function of RANKL”. Moreover, the “inhibition of binding of human RANKL to RANK” value in [9] is given as “inhibit the binding of human RANKL to its receptor RANK”.
